# Several values for one entry are separate records, joined by “and”; a condition that tells them apart may be missing. Identical values can stand only once. Entries after “also recorded” stand apart in the source; their conditions may differ. Like-named read-outs stand apart in the source and are kept apart here.
# Tests used:
# [1] = tested on: wild-type E. coli (K12 MG1655); assay: PAE in wild-type E. coli in the presence of sub-MIC azithromycin; type: cell-based, Escherichia coli; conditions: 16xMIC, 37° C.; for PAE (h) (sub-MIC AZ) 16x(0.2): then media with 0.2xMIC azithromycin; for PAE (h) (sub-MIC AZ) 16x(0.4): then media with 0.4xMIC azithromycin
# Text: FIG. 6. Post-antibiotic effect in the presence of sub-MIC azithromycin.
# The PAE measurements were repeated for wild-type E. coli in the presence of sub-MIC levels of the protein synthesis inhibitor azithromycin.
# P. aeruginosa PAO1 [2] = assay: Time-kill assays in P. aeruginosa PAO1; conditions: PAO1, 4x, 8x and 16xMIC, CAMH media, 37° C.
# Protocol: Time-kill assays. […] The experimental data points are the mean values from triplicate, independent measurements, and the error bars represent the standard deviation from the mean.
# Time-Kill Assays. […] Cultures were shaken at 37° C. for 6 h, and 100 μL aliquots were taken at each 1 h time interval and plated in serial dilutions in a Mueller-Hinton agar plate.
# [3] = tested on: FabZ*, hyperactive FabZ strain (L85P); assay: microbe, parasite or virus in culture; type: cell-based, Escherichia coli; conditions: for MIC: Escherichia coli, read-out: MIC (μM) FabZ*
# FabZ* E. coli = type: cell-based, Escherichia coli; conditions: for PAE (h) 4x, FabZ*: 4xMIC for 1 h; for PAE (h) 16x, FabZ*: 16xMIC for 1 h; for PAE in FabZ* E. coli: MIC multiple not stated or 1x-16xMIC
# Text: FIG. 4. Post-antibiotic effect of the ecLpxC inhibitors on wild-type and FabZ* E. coli.
# This included use of an E. coli strain (FabZ*) containing a hyperactive mutant of the fatty acid biosynthesis O-hydroxyacyl-ACP enzyme (FabZ), and determination of PAEs for wild-type E. coli in the presence of sub-MIC concentrations of macrolides.
# [4] = tested on: wild-type E. coli and FabZ* E. coli; assay: Time kill assays in E. coli; conditions: 4xMIC (16xMIC in FIG. 3), CaMH media, 37° C.
# Protocol: Each time point was performed in duplicate or triplicate and the entire experiment was performed in triplicate. The data points in the figure are the mean values from the independent measurements and the error bars represent the standard deviation from the mean.
# The antimicrobial activity of the compounds was examined. […] The post-antibiotic effect (PAE) of the inhibitors was measured by monitoring the regrowth of bacteria following compound washout. […] Bacterial regrowth was monitored by plating samples as a function of time after wash-out and enumerating CFUs.
# P. aeruginosa PAO1 [5] = assay: Post-antibiotic effect (PAE) in P. aeruginosa PAO1; conditions: 37° C.; for PAE (h) 4x: PAO1, 4xMIC for 1 h; for PAE (h) 8x: PAO1, 8xMIC for 1 h; for PAE (h) 16x: PAO1, 16xMIC for 1 h
# Protocol: Post-antibiotic effect of the paLpxC inhibitors on wild-type P. aeruginosa. […] The experimental data points are the mean values from triplicate, independent measurements, and the error bars represent the standard deviation from the mean.
# After incubating the plates overnight at 37° C., CFUs were enumerated, and the PAE values were calculated using a standard method where the time for the bacteria to recover 1 log post drug washout compared to the control was determined (FIG. 17, Table 6).
# Post-antibiotic Effect (PAE). PAEs were determined using P. aeruginosa PAO1. […] The compound was washed out by diluting the culture 1000-fold into fresh CAMH-II medium, and the regrowth of bacteria was monitored by taking 100 μL aliquots each hour and plating serial dilutions on Muller-Hinton agar plates.
# P. aeruginosa PAO1 [6] = assay: MIC by microbroth dilution, P. aeruginosa PAO1; conditions: Pseudomonas aeruginosa, PAO1, read-out: MIC (μM) (PAO1)
# [7] = tested on: wild-type E. coli (K-12 MG1655); assay: Post-antibiotic effect (PAE) in wild-type E. coli; type: cell-based, Escherichia coli; conditions: for PAE (h) 4x, Wild-type: 4xMIC for 1 h; for PAE (h) 16x, Wild-type: 16xMIC for 1 h; for PAE in wild-type E. coli: MIC multiple not stated or 4x and 16xMIC
# Text: FIG. 4. Post-antibiotic effect of the ecLpxC inhibitors on wild-type and FabZ* E. coli. […] PAE data for wild-type E. coli are in panels (a) PT805, (c) PT810 and (e) CHIR-090, and for FabZ* E. coli in (b) PT805, (d) PT810 and (f) CHIR-090.
# PAE data for wild-type E. coli are in panels (a) PT805, (c) PT810 and (e) CHIR-090, and for FabZ* E. coli in (b) PT805, (d) PT810 and (f) CHIR-090.
# [8] = tested on: E. coli strain (K-12, MG1655); assay: MIC by microbroth dilution, wild-type E. coli; type: cell-based, Escherichia coli; conditions: wild-type E. coli K-12 MG1655
# [9] = tested on: efflux-pump mutant strain (ΔMexABCDXY) (paEP); assay: MIC by microbroth dilution, efflux-pump mutant P. aeruginosa; conditions: Pseudomonas aeruginosa, read-out: MIC (μM) (paEP)
# Text: Bacterial Strains. […] The efflux-pump deficient P. aeruginosa strain (ΔMexABCDXY), N150, was derived from PAO1.
# Minimum Inhibitory Concentration (MIC) Measurements.
# paLpxC [10] = molecular target: T1, paLpxC (Pseudomonas aeruginosa (strain ATCC 15692 / DSM 22644 / CIP 104116 / JCM 14847 / LMG 12228 / 1C / PRS 101 / PAO1), UniProt P47205); assay: Spin column (Penefsky) residence time assay on paLpxC; type: binding; conditions: 37° C.; for tR (min) (Spin column assay): direct displacement; for k (min^−1), spin-column assay: first-order fit
# Protocol: FIG. 14. Spin-column assay. A spin-column assay was used to quantify the residence time of inhibitors on paLpxC at 37° C. […] Samples were then subjected to size exclusion chromatography at different times using a Spin-Trap G-25 column (800×g for 2 min). […] Preincubated solutions of enzyme (10 μM) and inhibitor (10 or 20 μM) were diluted 200-fold into a solution of PT855 (1 μM) at 37° C. Aliquots of this solution were withdrawn at various times and subjected to centrifugal gel filtration chromatography using PD SpinTrap™ G-25 columns. The fluorescence of the eluate was quantified, and the data were fit to a single exponential equation to obtain koff (FIG. 14, Tables 4 and 5).
# Inhibitor Residence Time Measurements using a Spin Column Assay. […] Subsequently, 10 μL of the incubation mixture was diluted into 2 mL of the same buffer containing 1 μM of PT855, and 100 μL of this mixture was then aliquoted at different time points and loaded onto a PD SpinTrap™ G-25 column (Cytiva) that had been equilibrated with buffer prior to sample loading. […] The fluorescence intensities corresponding to loading diluted EI without the fluorescent competitor and loading the competitor alone were measured separately to determine the dynamic range and endpoint of the assay. […] Rates were calculated by fitting the change in fluorescence intensity over time to a one-phase association equation in GraphPad Prism.
# paLpxC [11] = molecular target: T1, paLpxC; assay: biochemical; type: binding; conditions: for Ki / tR (min) Fluorescence assay: 37° C.; for Ki: fluorescence competition; for tR (min) Fluorescence assay: tR = 1/koff; for koff: read-out: Koff (s^−1); for kon: read-out: Kon (μM^−1s^−1)
# wild-type E. coli = assay: MIC of azithromycin after pre-exposure of wild-type E. coli to 16xMIC inhibitor; type: cell-based, Escherichia coli; conditions: for MIC: Escherichia coli
# T1 sequence (P47205 1-299): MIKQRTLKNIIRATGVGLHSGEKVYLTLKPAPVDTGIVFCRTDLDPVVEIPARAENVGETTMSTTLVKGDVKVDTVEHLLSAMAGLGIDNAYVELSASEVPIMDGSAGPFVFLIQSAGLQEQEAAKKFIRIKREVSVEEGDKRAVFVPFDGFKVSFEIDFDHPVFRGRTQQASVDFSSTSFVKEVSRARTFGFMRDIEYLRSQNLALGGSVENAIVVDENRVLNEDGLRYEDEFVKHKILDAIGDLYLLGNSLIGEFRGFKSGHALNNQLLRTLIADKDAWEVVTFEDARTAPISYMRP
Structure (SMILES),reduction of the starting log CFU/mL of the bacterial culture (P. aeruginosa PAO1 [2]),MIC [3],"PAE (h) 4x, FabZ* (FabZ* E. coli; 1:1000 dilution)","PAE (h) 16x, FabZ* (FabZ* E. coli; 1:1000 dilution)",PAE (h) 4x (P. aeruginosa PAO1 [5]),PAE (h) 8x (P. aeruginosa PAO1 [5]),PAE (h) 16x (P. aeruginosa PAO1 [5]),MIC (P. aeruginosa PAO1 [6]),"PAE (h) 4x, Wild-type ([7]; 1:1000 dilution)","PAE (h) 16x, Wild-type ([7]; 1:1000 dilution)",MIC ([8]; Escherichia coli),MIC [9],tR (min) (Spin column assay) (paLpxC [10]),Ki (paLpxC [11]),tR (min) Fluorescence assay (paLpxC [11]),koff (paLpxC [11]),kon (paLpxC [11]),PAE in FabZ* E. coli (FabZ* E. coli),PAE in wild-type E. coli [7],other results
"CC(CCn1ccc(-c2ccc(-n3nccn3)cc2)cc1=O)(C(=O)NO)S(C)(=O)=O (racemic) [PT805, 4-(4-(4-(2H-1,2,3-Triazol-2-yl)phenyl)-2-oxopyridin-1(2H)-yl)-N-hydroxy-2-methyl-2-(methylsulfonyl)butanamide]",more than 3 logs,0.019 µM,1.53 ± 0.13 h and 1.5 ± 0.1 h,2.1 ± 0.2 h,1.4 ± 0.1 h,2.2 ± 0.3 h,3.4 ± 0.2 h,1.56 µM,0 h,0 h,0.16 µM,0.4 µM,,,,,,,,"PAE (h) (sub-MIC AZ) 16x(0.2) [1]: 1.4 ± 0.1 h; PAE (h) (sub-MIC AZ) 16x(0.4) [1]: 2.4 ± 0.1 h; PAE (h) 1x, FabZ* (FabZ* E. coli; 1xMIC for 1 h, 1:1000 dilution): 0.8 ± 0.1 h; reduction of the starting log CFU/mL of the bacterial culture [4]: greater than 3 logs; PAE (h) 1x, Wild-type ([7]; 1xMIC for 1 h, 1:1000 dilution): 0 h"
"CC(CCn1ccc(-c2ccccc2)cc1=O)(C(=O)NO)S(C)(=O)=O (racemic) [PT901, N-hydroxy-2-methyl-2-(methylsulfonyl)-4-(2-oxo-4-phenylpyridin-1(2H)-yl)butanamide]",more than 3 logs,,,,0.7 h and 0.7 ± 0.1 h,1.1 ± 0.1 h,1.3 ± 0.1 h,3.12 µM,,,,0.2 µM,,,,,,,,
"CC(CCn1ccc(-c2ccc(-c3cn(CC4CC4)nn3)cc2)cc1=O)(C(=O)NO)S(C)(=O)=O (racemic) [PT908, 4-(4-(4-(1-(cyclopropylmethyl)-1H-1,2,3-triazol-4-yl)phenyl)-2-oxopyridin-1(2H)-yl)-N-hydroxy-2-methyl-2-(methylsulfonyl)butanamide]",more than 3 logs,,,,1.6 ± 0.1 h,2.2 ± 0.1 h,3.1 ± 0.1 h,3.12 µM,,,,0.4 µM,190.6 ± 92.0 min,0.0102 ± 0.0043 nM,66.9 ± 8.6 min and 67.0 ± 8.6 min,0.00025 ± 3e-05 s⁻¹,26.4 ± 6.3 µM⁻¹ s⁻¹,,,
"CC(CCn1ccc(-c2ccc(-c3cn(Cc4ccc(F)cc4)nn3)cc2)cc1=O)(C(=O)NO)S(C)(=O)=O (racemic) [PT909, 4-(4-(4-(1-(4-fluorobenzyl)-1H-1,2,3-triazol-4-yl)phenyl)-2-oxopyridin-1(2H)-yl)-N-hydroxy-2-methyl-2-(methylsulfonyl)butanamide]",more than 3 logs,,,,1.7 ± 0.1 h,2.5 ± 0.1 h,3.5 ± 0.2 h,1.56 µM,,,,0.05 µM,106 ± 25 min and 106.2 ± 25.0 min,0.008 ± 0.0023 nM,68.2 ± 9.6 min,0.00025 ± 3e-05 s⁻¹,33.8 ± 13.6 µM⁻¹ s⁻¹,,,"k (min^−1), spin-column assay (paLpxC [10]): 0.009 ± 0.002 min⁻¹"
Cn1nnnc1SCC1=C(C(=O)O)N2C(=O)[C@@H](NC(=O)[C@H](O)c3ccccc3)[C@H]2SC1 [Cefamandole],,,0 h,0 h,,,,,0 h,0 h,,,,,,,,failed to generate a PAE; also recorded: neither cefamandole nor trimethoprim showed a PAE,failed to generate a PAE; also recorded: neither cefamandole nor trimethoprim showed a PAE,PAE (h) (sub-MIC AZ) 16x(0.2) [1]: 0 h; PAE (h) (sub-MIC AZ) 16x(0.4) [1]: 0 h; MIC (μM) FabZ* ([3]; hyperactive FabZ strain (L85P)): 1.6 µM; MIC [8]: 6.25 µM
CC[C@H]1OC(=O)[C@H](C)[C@@H](O[C@H]2C[C@@](C)(OC)[C@@H](O)[C@H](C)O2)[C@H](C)[C@@H](O[C@@H]2O[C@H](C)C[C@H](N(C)C)[C@H]2O)[C@](C)(O)C[C@@H](C)C(=O)[C@H](C)[C@@H](O)[C@]1(C)O [Erythromycin],,6.25 µM,0.8 ± 0.2 h,1.5 ± 0.4 h,,,,,0.7 ± 0.1 h,1.4 ± 0.4 h,50 µM,,,,,,,0.8 ± 0.05 h and 0.7 to 1.4 h,0.8 ± 0.05 h and 0.7 to 1.4 h,
"COc1ccc(-c2ccc(CNC3(C(=O)NO)CCS(=O)(=O)CC3)cc2)c(F)c1 [PT920, 4-(((2′-fluoro-4′-methoxy-[1,1′-biphenyl]-4-yl)methyl)amino)-N-hydroxytetrahydro-2H-thiopyran-4-carboxamide 1,1-dioxide]",more than 3 logs,,,,1.0 ± 0.1 h,1.3 ± 0.2 h,1.7 ± 0.2 h,0.4 µM,,,,0.03 µM,79 ± 24 min and 79.0 ± 24.0 min,0.0379 ± 0.024 nM,32.0 ± 4.8 min,0.00053 ± 7e-05 s⁻¹,16.6 ± 8.5 µM⁻¹ s⁻¹,,,"k (min^−1), spin-column assay (paLpxC [10]): 0.013 ± 0.004 min⁻¹"
COc1cc(Cc2cnc(N)nc2N)cc(OC)c1OC [Trimethoprim],,2.5 µM,0 h,0 h,,,,,0 h,0 h,2.5 µM,,,,,,,failed to generate a PAE; also recorded: neither cefamandole nor trimethoprim showed a PAE,failed to generate a PAE; also recorded: neither cefamandole nor trimethoprim showed a PAE,
CC[C@H]1OC(=O)[C@H](C)[C@@H](O[C@H]2C[C@@](C)(OC)[C@@H](O)[C@H](C)O2)[C@H](C)[C@@H](O[C@@H]2O[C@H](C)C[C@H](N(C)C)[C@H]2O)[C@](C)(O)C[C@@H](C)CN(C)[C@H](C)[C@@H](O)[C@]1(C)O [azithromycin],,,,,,,,,,,,,,,,,,,,"MIC (wild-type E. coli; bacteria pre-exposed to 16xMIC ecLpxC inhibitor, read-out: MIC of azithromycin after pre-exposure to ecLpxC inhibitor): 3.25 µM; MIC (wild-type E. coli; no pre-exposure, read-out: MIC of azithromycin, control): 12 µM; MIC of azithromycin after pre-exposure to cefamandole (wild-type E. coli; bacteria pre-exposed to 16x cefamandole): 6.2 µM; fold decrease of azithromycin MIC after ecLpxC inhibitors (wild-type E. coli; pre-treatment with 16xMIC ecLpxC inhibitors): 4 fold; fold decrease of azithromycin MIC after cefamandole (wild-type E. coli; pre-treatment with cefamandole): 2 fold"

# Reference: patent US20250099433A1, “COMPOSITION AND METHOD FOR TREATMENT OF GRAM NEGATIVE BACTERIAL INFECTION” (The Research Foundation for the State University of New York, priority 2021, published 2025)
